In patent publication US20100063027A1, “Amine Derivative Having NPY Y5 Receptor Antagonistic Activity” (SHIONOGI & CO., LTD., priority 2006, published 2010):

Tests used:
P-gp [1] = system: T1, P-gp; experiment: Potential for drug-drug interactions through P-gp in vivo (Kp with or without cyclosporin A); conditions: male, Jcl;C57BL/6J, mouse, brain (relative to plasma); mice, intravenous administration, with cyclosporin A (20 mg/kg), a P-gp inhibitor; read-out: KpCSA value
T1 construct: effectively excreted through P-gp from the brain to vessels; from tissue; host or cells: brain / blood-brain barrier of living Jcl;C57BL/6J mice
Method: (§1) Transportability of the compounds of the present invention through the blood-brain barrier (blood-brain partition coefficient; Kp) in mice (Jcl;C57BL/6J mice, ♂, 7 weeks) was defined from the difference in concentration of the compounds between in plasma and in brain after intravenous administration of the compounds (0.5 mg/2 mIAg). The brain Kp value of Compound (1-72) (KpCont.) was 1.29 showing high transportability through the blood-brain barrier.
(§2) To examine the potential for drug-drug interactions through P-gp in vivo, the Kp values of compounds of the present invention with (KpCSA) or without (KpCont.) cyclosporin A (20 mg/kg), a P-gp inhibitor, were calculated. The KpCSA value of Compound (I-72) was 1.14, and the calculated KpCSA/KpCont. ratio was 0.9.
(§3) On the other hand the potential for drug-drug interactions through P-pg of amide compound B which has similar structure of Compound (I-72) was also examined in mice. The KpCont. and KpCSA were 0.04 and 0.84, respectively.

P-gp [2] = target: T2, P-gp (Mus musculus, UniProt P21447); experiment: as above; conditions: mice, with versus without cyclosporin A (20 mg/kg)
T2 construct: effectively excreted through P-gp from the brain to vessels; from tissue; host or cells: brain / blood-brain barrier of living Jcl;C57BL/6J mice
T2 sequence (P21447 whole entry): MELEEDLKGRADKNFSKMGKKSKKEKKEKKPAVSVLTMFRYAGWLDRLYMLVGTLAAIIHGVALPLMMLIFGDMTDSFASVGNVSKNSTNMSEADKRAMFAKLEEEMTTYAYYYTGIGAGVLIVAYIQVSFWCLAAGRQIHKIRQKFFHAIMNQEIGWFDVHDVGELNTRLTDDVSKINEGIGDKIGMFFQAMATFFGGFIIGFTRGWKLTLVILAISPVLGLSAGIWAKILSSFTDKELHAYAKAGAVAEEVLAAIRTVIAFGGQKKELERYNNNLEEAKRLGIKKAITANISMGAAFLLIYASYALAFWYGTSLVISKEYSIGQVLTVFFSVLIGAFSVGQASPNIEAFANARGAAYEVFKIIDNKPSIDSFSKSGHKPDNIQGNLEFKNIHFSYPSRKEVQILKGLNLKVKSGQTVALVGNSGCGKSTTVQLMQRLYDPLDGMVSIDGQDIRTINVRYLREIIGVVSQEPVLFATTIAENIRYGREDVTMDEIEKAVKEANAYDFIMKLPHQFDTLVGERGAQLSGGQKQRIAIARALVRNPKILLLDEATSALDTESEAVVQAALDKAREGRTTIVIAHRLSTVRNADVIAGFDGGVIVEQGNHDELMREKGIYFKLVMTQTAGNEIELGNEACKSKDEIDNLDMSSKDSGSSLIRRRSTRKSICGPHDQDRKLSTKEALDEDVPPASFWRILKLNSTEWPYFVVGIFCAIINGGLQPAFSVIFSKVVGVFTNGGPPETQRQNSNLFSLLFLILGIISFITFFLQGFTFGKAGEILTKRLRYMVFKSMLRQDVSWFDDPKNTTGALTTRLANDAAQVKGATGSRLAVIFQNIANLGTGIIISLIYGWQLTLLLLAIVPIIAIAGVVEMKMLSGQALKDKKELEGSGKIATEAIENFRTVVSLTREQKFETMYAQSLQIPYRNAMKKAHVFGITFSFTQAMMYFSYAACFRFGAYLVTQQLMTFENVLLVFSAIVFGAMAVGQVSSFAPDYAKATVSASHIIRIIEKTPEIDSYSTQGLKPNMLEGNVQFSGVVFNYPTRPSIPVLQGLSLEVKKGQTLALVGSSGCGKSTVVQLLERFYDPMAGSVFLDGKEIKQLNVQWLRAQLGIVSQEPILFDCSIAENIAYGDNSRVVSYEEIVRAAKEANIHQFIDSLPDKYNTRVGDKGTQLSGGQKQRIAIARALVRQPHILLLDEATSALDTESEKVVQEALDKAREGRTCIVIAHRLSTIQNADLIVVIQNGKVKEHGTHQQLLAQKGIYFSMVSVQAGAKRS
Method: as §1, §2, §3

[3] = Transportability through the blood-brain barrier (brain Kp) in mice; format: in vivo; conditions: male, Jcl;C57BL/6J, mouse, brain (relative to plasma), intravenous administration, without cyclosporin A, read-out: brain Kp value (KpCont.), blood-brain partition coefficient
Method: as §1

human NPY Y5 receptor = target: T3, human NPY Y5 receptor (Homo sapiens, UniProt Q15761); experiment: Affinity for NPY Y5 receptor ([125I] peptide YY binding, CHO cell membranes); conditions: [125I] peptide YY 60 pM, 25° C., 2 hours
T3 construct: expressed in transfected cells; membranes used
T3 sequence (Q15761 1-445): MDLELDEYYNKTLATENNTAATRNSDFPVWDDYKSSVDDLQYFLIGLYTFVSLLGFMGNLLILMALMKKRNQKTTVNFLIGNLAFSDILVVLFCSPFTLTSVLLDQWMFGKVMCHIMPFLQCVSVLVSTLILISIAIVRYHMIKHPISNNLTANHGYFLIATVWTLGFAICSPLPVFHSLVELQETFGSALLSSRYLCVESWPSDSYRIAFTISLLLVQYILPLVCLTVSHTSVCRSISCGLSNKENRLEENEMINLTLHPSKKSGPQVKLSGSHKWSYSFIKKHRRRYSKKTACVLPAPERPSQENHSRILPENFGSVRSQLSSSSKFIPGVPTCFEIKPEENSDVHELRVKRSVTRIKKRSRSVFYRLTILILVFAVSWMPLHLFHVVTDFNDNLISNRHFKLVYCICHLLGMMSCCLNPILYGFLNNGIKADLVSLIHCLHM
Description: cDNA sequence encoding a human NPY Y5 receptor (WO96/16542) was cloned in a vector (pME18S, Takebe et al. Mol. Cell. Biol. 8, 8957). The obtained expression vector was transfected into CHO cells as a host by using Lipofect AMINE reagent (Trademark, Gico BRL Co., Ltd.) according to the instruction manual. The cells that stably express NPY Y5 receptor were obtained.
The membranes prepared from the CHO cells expressing NPY Y5 receptor, the compound of the present invention and 30,000 cpm [^125I] peptide YY (60 pM of final concentration: Amersham) were incubated in the assay buffer (20 mM HEPES-Hanks buffer containing 0.1% bovine serum albumin, pH 7.4) at 25° C. for 2 hours, and then the membrane was filtered from the mixture through a glassfilter (GF/C) presoaked with 1% polyethyleneimine. After washing with 50 mM Tris-HCl buffer (pH 7.4), radioactivity retained on the filters was quantified with a gamma counter. Nonspecific binding was defined as the amount of radioactivity bound to the membranes after incubation in the presence of 200 nM of peptide YY. The 50% inhibitory concentration of the test compound against the specific peptide YY binding (IC50 value) was calculated (Inui, A. et al. Endocrinology 131, 2090-2096 (1992)).

Row | IC50 (human NPY Y5 receptor) | SMILES | further results
1 |  | C[C@@H]1CN(c2ccc(NC[C@H]3CC[C@H](NS(=O)(=O)C(C)(C)C)CC3)cc2)C[C@H](C)O1 [Compound I-72] | melting point: 147 to 149 °C; Kp (P-gp [1]): 1.14; KpCSA/KpCont. ratio (P-gp [2]): 0.9; Kp [3]: 1.29
2 | 0.1 nM | CC1CC(C)CN(c2cccc(NC[C@H]3CC[C@H](NS(=O)(=O)C(C)(C)C)CC3)c2)C1 (stereo partly drawn) [Ii-1] | 
3 | 2.5 nM | CCCn1c(=O)oc2cc(NC[C@H]3CC[C@H](NS(=O)(=O)CC)CC3)ccc21 [Ii-16] | 
4 | 11 nM | CCS(=O)(=O)N[C@H]1CC[C@H](CNc2ccc(S(=O)(=O)c3ccc(F)cc3)cc2)CC1 [Ii-34] | 
5 | 3.4 nM | CCS(=O)(=O)N[C@H]1CC[C@H](CNc2cc(-c3ccccc3)on2)CC1 [Ii-44] | 
6 | 0.7 nM | CC(C)S(=O)(=O)NC[C@H]1CC[C@H](Nc2ccc(C(F)(F)F)cn2)CC1 [Ij-1] | 
7 | 0.27 nM | CC(C)S(=O)(=O)NC[C@H]1CC[C@H](Nc2ccc(OC3CCCC3)nn2)CC1 [Ij-52] | 
8 | 2.5 nM | CC(C)(C)S(=O)(=O)NC[C@H]1CC[C@H](Nc2ccc3ccccc3n2)CC1 [Ij-59] | 
9 | 0.39 nM | CC(C)(C)S(=O)(=O)NC[C@H]1CC[C@H](Nc2nc3ccc(C(F)(F)F)cc3s2)CC1 [Ij-66] | 
10 |  | C[C@@H]1CN(c2ccc(NC(=O)[C@H]3CC[C@H](NS(=O)(=O)C(C)(C)C)CC3)cc2)C[C@H](C)O1 [compound B, reference compound] | Kp (P-gp [1]): 0.84; KpCSA/KpCont. ratio (P-gp [2]): 20.5; Kp [3]: 0.04
